Experimental data reported in US7572606B1 (Nereus Pharmaceuticals, Inc., priority 2005, dated 2009).
Values joined by “and” are separate entries in the source; they are usually repeats but may differ in a detail not shown here. Equal values may be shown once. Read-outs that look alike come from different tables or passages of the source.

How the values were obtained:
[1] = test system: U266; assay: Cell growth inhibition, resazurin, 48 h; assay type: cell-based, human; conditions: U266, 48 h drug exposure
[2] = test system: PC-3; assay: Cell growth inhibition, resazurin, 48 h
[3] = test system: NCI-H292; assay: Cell growth inhibition, resazurin, 48 h; assay type: cell-based, human; conditions: NCI-H292, 48 h drug exposure
[4] = test system: 20S proteasome chymotrypsin-like activity in RPMI 8226 cells; assay: Chymotrypsin-like activity of 20S proteasomes in treated cells; assay type: cell-based, human; conditions: 1 hr, mean ± SD, n = 3
Protocol: RPMI 8226 (ATCC, CCL-155), the human multiple myeloma cell line, was cultured in RPMI 1640 medium supplemented with 2 mM L-glutamine, 100 units/ml penicillin, 100 μg/ml streptomycin, 1 mM sodium pyruvate and 10% heat inactivated fetal bovine serum at 37° C., 5% CO2 and 95% humidified air. […] DMSO was used as the vehicle control at a final concentration of 0.1%. Following 1 hr incubation of RMPI 8226 cells with the compounds, the cells were pelleted by centrifugation at 2,000 rpm for 10 sec at room temperature and washed 3× with ice-cold 1×Dulbecco's Phosphate-Buffered Saline (DPBS, Mediatech, Herndon, Va.). DPBS washed cells were lysed on ice for 15 min in lysis buffer (20 mM HEPES, 0.5 mM EDTA, 0.05% Triton X-100, pH 7.3) supplemented with protease inhibitor cocktail (Roche Diagnostics, Indianapolis, Ind.). Cell debris was pelleted by centrifugation at 14,000 rpm for 10 min, 4° C. and supernatants (=cell lysates) were transferred to a new tube. Protein concentration was determined by the BCA protein assay kit (Pierce Biotechnology, Rockford, Ill.). […] The total amount of protein used for each assay was 20 μg. The final concentration of Suc-LLVY-AMC and DMSO was 20 μM and 0.2%, respectively.

[5] = biological target: T1, trypsin-like activity of rabbit muscle 20S proteasome (Oryctolagus cuniculus, UniProt G1SWK8); assay: In vitro inhibition of 20S proteasome, Boc-LRR-AMC; assay type: biochemical; conditions: for inhibition of the trypsin-like activity of the 20S proteasome: under the conditions tested; for EC50: purified rabbit 20S proteasome, Boc-LRR-AMC
T1 construct: EC50 Trypsin-like; other: purified rabbit 20S proteasome, Boc-LRR-AMC; other: under the conditions tested
T1 sequence (G1SWK8 1-271): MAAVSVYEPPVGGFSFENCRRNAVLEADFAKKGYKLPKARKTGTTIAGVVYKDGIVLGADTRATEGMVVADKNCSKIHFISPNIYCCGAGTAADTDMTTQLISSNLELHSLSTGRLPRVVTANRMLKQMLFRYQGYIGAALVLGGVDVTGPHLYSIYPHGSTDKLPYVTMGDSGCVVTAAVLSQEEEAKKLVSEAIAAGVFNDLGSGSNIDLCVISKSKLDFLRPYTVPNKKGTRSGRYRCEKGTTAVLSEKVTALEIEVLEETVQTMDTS

[6] = test system: NF-κB-mediated luciferase activity in HEK293 NF-κB/Luc cells; assay: NF-κB-mediated luciferase reporter gene assay; assay type: cell-based, human; conditions: for EC50: 6 h TNF-α stimulation; for luciferase activity upon TNF-α stimulation: pretreatment of NF-κB/Luc 293 cells
Protocol: The HEK293 NF-κB/luciferase reporter cell line is a derivative of the human embryonic kidney cell line (ATCC; CRL-1573) and carries a luciferase reporter gene under the regulation of 5×NF-κB binding sites. […] When performing the luciferase assay, the DMEM basal medium was replaced with phenol-red free DMEM basal medium and the G418 was omitted.
For NF-κB-mediated luciferase assays, HEK293 NF-κB/luciferase cells were seeded at 1.5×10^4 cells/well in 90 μl phenol-red free DMEM complete medium into Corning 3917 white opaque-bottom tissue culture plates. For Formulae II-2, II-4, II-5A and II-18, a 400 μM starting dilution was made in 100% DMSO and this dilution was used to generate an 8-point half log dilution series. […] For formula II-20, a 2.5 mM or 8 mM starting dilution was made in 100% DMSO and the final test concentrations ranged from 6.3 μM to 2.0 nM or 20 μM to 6.3 nM respectively. The plates were returned to the incubator for 1 hour. After 1 hr pretreatment, 10 μl of a 50 ng/ml TNF-α solution, prepared in the phenol-red free DMEM medium was added, and the plates were incubated for an additional 6 hours.
At the end of the TNF-α stimulation, 100 μl of Steady Lite HTS luciferase reagent (Packard Bioscience) was added to each well and the plates were left undisturbed for 10 min at room temperature before measuring the luciferase activity. The relative luciferase units (RLU) were measured by using a Fusion microplate fluorometer (Packard Bioscience).
NF-κB inducible luciferase activity was measured at 6 hours.

[7] = test system: RPMI 8226; assay: Cell growth inhibition, resazurin, 48 h; conditions: for EC50: Homo sapiens, RPMI-8226, 48 h, RPMI 8226, 48 h drug exposure; for % cytotoxicity: RPMI 8226
Protocol: (§1) RPMI 8226 (CCL-155), HT-29 (HTB-38), and B16-F10 (CRL-6475) cells were purchased from ATCC. RPMI 8226 cells were maintained in RPMI 1640 media supplemented with 10% (v/v) FBS, 2 mM L-glutamine, 1 mM sodium pyruvate and Penicillin/Streptomycin at 100 IU/ml and 100 μg/ml, respectively. HT-29 cells were maintained in McCoys 5A supplemented with 10% (v/v) FBS, 2 mM L-glutamine, 1 mM sodium pyruvate, 1% (v/v) non-essential amino acids, 10 mM HEPES and Penicillin/Streptomycin at 100 IU/ml and 100 μg/ml, respectively. B16-F10 cells were maintained in DMEM supplemented with 10% (v/v) FBS, 2 mM L-glutamine, 10 mM HEPES and Penicillin/Streptomycin at 100 IU/ml and 100 μg/ml, respectively.
(§2) RPMI 8226 cells were seeded at 2×10^4 cells/well in 90 μl RPMI media containing 10% (v/v) FBS or 1% (v/v) FBS into 96 well black-walled, clear-bottom tissue culture plates. […] Formulae II-16, II-17 and Formula II-18 were serially diluted in media containing 1% or 10% FBS and added in triplicate to the test wells. […] The final concentration of Formula II-18 ranged from 2 μM to 630 pM.

[8] = test system: HT-29; assay: Cell growth inhibition, resazurin, 48 h; assay type: cell-based, human; conditions: HT-29, 48 h drug exposure
Protocol: as §1, §2

[9] = test system: MDA-MB-231; assay: Cell growth inhibition, resazurin, 48 h; assay type: cell-based, human; conditions: MDA-MB-231, 48 h drug exposure
[10] = Homo sapiens, HEK293, 1 h pretreatment, read-out: EC50

For `C[C@@]12OC(=O)[C@]1([C@@H](O)[C@@H]1C=CCCC1)NC(=O)[C@@H]2CCCl` [Formula II-16, Salinosporamide A], the EC50 ([1]; Homo sapiens, U-266, 48 h) was 4.7 ± 0.7 nM, the “% cytotoxicity” value ([2]; PC-3) was 88% and 89% and the EC50 ([2]; PC-3, 48 h drug exposure) was 64 ± 26 nM. For the same compound, the EC50 ([3]; Homo sapiens, NCI-H292, 48 h) was 97 nM, the EC50 [3] was 66 ± 29 nM and the “% inhibition of the chymotrypsin-like activity of 20S proteasomes in RPMI 8226 cell lysates” value (“% inhibition” below) ([4]; 1 nM) was 30 ± 7%. The “% inhibition” value ([4]; 5 nM) was 85±7%, the “% inhibition” value ([4]; 10 nM) was 94 ± 3% and the “% inhibition” value ([4]; 50 nM) was 97 ± 0%. The “% inhibition” value ([4]; 100 nM) was 98 ± 1%, the “inhibition of the trypsin-like activity of the 20S proteasome” value (from here on “inhibition … of the 20S proteasome”) [5] was “able to inhibit the trypsin-like activity” and the EC50 [6, 10] was about 7 nM. The “luciferase activity upon TNF-α stimulation” value [6] was “dose-dependent decrease of luciferase activity”, the EC50 [7] was 8.6 ± 1.9 nM and the “% cytotoxicity” value ([7]; listed as II-16) was 94 ± 0%. The “% cytotoxicity” value ([7]; listed as Salinosporamide A) was 94 ± 1%, the EC50 [8] was 40 ± 26 nM and the EC50 ([8]; Homo sapiens, HT-29, 48 h) was 47 nM. The EC50 ([9]; Homo sapiens, MDA-MB-231, 48 h) was 67 nM and the EC50 [9] was 87 ± 40 nM.

With `CC[C@H]1C(=O)N[C@@]2([C@@H](O)[C@@H]3C=CCCC3)C(=O)O[C@@]12C` [Formula II-17] the EC50 ([2]; Homo sapiens, PC-3, 48 h) was over 20000 nM, the EC50 ([3]; Homo sapiens, read-out: EC50) was over 20000 nM and the “% inhibition” value ([4]; 1 nM) was 6 ± 6%. For the same compound, the “% inhibition” value ([4]; 5 nM) was 10 ± 5%, the “% inhibition” value ([4]; 10 nM) was 6 ± 6% and the “% inhibition” value ([4]; 50 nM) was 26 ± 5%. For the same compound, the “% inhibition” value ([4]; 100 nM) was 30±4%, the “% inhibition” value ([4]; 500 nM) was 39 ± 3% and the “% inhibition” value ([4]; 1,000 nM) was 46 ± 4%. The “% inhibition” value ([4]; 10,000 nM) was 65 ± 5%, the “inhibition … of the 20S proteasome” value [5] was “able to inhibit the trypsin-like activity” and the EC50 [6, 10] was 960 ± 210 nM. For the same compound, the EC50 ([8]; Homo sapiens, read-out: EC50) was over 20000 nM and the EC50 ([9]; Homo sapiens, read-out: EC50) was 5900 ± 601 nM.

With `C[C@H]1C(=O)N[C@@]2([C@@H](O)[C@@H]3C=CCCC3)C(=O)O[C@@]12C` [Formula II-20] the EC50 ([1]; Homo sapiens, U-266, 48 h) was 310 nM, the EC50 [1] was 442 nM and the “% inhibition” value ([4]; 1 nM) was 3 ± 10%. For the same compound, the “% inhibition” value ([4]; 5 nM) was 31 ± 9%, the “% inhibition” value ([4]; 10 nM) was 37 ± 3% and the “% inhibition” value ([4]; 50 nM) was 64 ± 3%. The “% inhibition” value ([4]; 100 nM) was 66±3%, the “% inhibition” value ([4]; 500 nM) was 71 ± 2% and the “% inhibition” value ([4]; 1,000 nM) was 73 ± 2%. For the same compound, the “% inhibition” value ([4]; 10,000 nM) was 87 ± 4%, the EC50 [5] was 321 nM and the EC50 ([5]; listed as II-20) was 321 nM. For the same compound, the “inhibition … of the 20S proteasome” value [5] was “able to inhibit the trypsin-like activity”, the EC50 ([6]; 1 h pretreatment) was 849 ± 225 nM and the “luciferase activity upon TNF-α stimulation” value [6] was “dose-dependent decrease of luciferase activity”. The EC50 [7] was 8510 ± 3260 nM.
